Laboratory results: US20230414628A1, “METHODS FOR TREATING DISEASES MEDIATED BY GLUTATHIONE PEROXIDASE 4” (priority 2022, published 2023)

Each compound was assayed on RAG01 (derived from fibroblasts of a patient diagnosed with SSMD) fibroblasts (assay: CellTiter-Glo concentration response in RAG01 fibroblasts). Details: Homo sapiens, Fibroblast, 72 h.
Type: cell-based, human
Description: Compounds described herein were tested in three cell lines, RAG01 (derived from fibroblasts of a patient diagnosed with SSMD) fibroblasts, RAG02 (derived from fibroblasts of the patient's parent), and GM09503 (from supplier Corriell) (derived from a healthy donor) to each generate 10-point concentration response curves (CRC). The three cell lines were each thawed seven (7) days prior to seeding. The RAG01 cells were thawed in a medium supplemented with a-tocopherol. Cells were passaged four (4) days prior to the seeding. The α-tocopherol was removed from the RAG01 cells. Cells were then seeded at 900 cells per well in 384-well plates. Two replicates were prepared for two independent (replicate) experiments. All plates were then incubated with compounds described herein for 72 hours, prior to CellTiter-Glo assay. […] The assay was run using the CellTiter-Glo (Promega) following manufacturer's guidelines and luminescent spectrophotometric reading on PHERAstar FSX (BMG Labtech). A 0.1% dimethylsulfoxide (DMSO) was used as a blank (vehicle control); and a 1 μM Ferrostatin-1 was used as a control (CTRL).
(§1) The raw data was analyzed using Activity Base® software. The compounds were evaluated by efficacy (percentage effect) normalized to the vehicle control. The percentage effect (PE) was determined from the signal increase in comparison to the vehicle control according to the formula below: […]
The percentage effect values were then plotted against log concentration of the drug to generate a concentration response curve. The curves were fitted using a four-parameter fit, and curve tops and hillslopes were fixed where required and justified.

Question: For COC(=O)c1cc2c(C(F)(F)F)cc(-c3ccccc3)cc2n1O [compound 100, NHI-2], which EC50 is on record?
Answer: 1310 nM

Same assay, conditions: Homo sapiens, Fibroblast; RAG01 cell line; 72 hours incubation; CellTiter-Glo; percentage effect normalized to vehicle control; 10-point CRC from 10 μM; read-out: EC50

Question: With CCN1CCC(n2cc(CNc3cc(Cl)c4ncc(C#N)c(Nc5ccc(F)c(Cl)c5)c4c3)nn2)CC1 [compound 72, Cot inhibitor-2] as the compound, how does the EC50 read?
Answer: 77 nM

Question: O=C1NC(=O)c2cc(Nc3ccc(F)cc3)c(Nc3ccc(F)cc3)cc21 [compound 73, CGP 53353] was tested. Which EC50 did it give?
Answer: 168 nM

Question: Which EC50 does the source give for COc1ccc2c(c1)c(C1=C(c3c[nH]c4ccccc34)C(=O)NC1=O)cn2CCCN(C)C [compound 74, Go 6983] here?
Answer: 764 nM

Question: How did the EC50 turn out when CN1CCN(Cc2ccc(-c3cnc4[nH]cc(-c5ccc6[nH]ccc6c5)c4c3)cc2)CC1 [compound 75, URMC-099] was run?
Answer: 377 nM

Question: How did the EC50 turn out when COc1cc(N2CCC(N3CCN(C)CC3)CC2)ccc1Nc1ncc(Cl)c(Nc2ccccc2S(=O)(=O)C(C)C)n1 [compound 76, NVP-TAE684] was run?
Answer: 480 nM

Question: For CNC(=O)c1ccccc1Nc1cc(Nc2ccc(N3CCOCC3)cc2OC)ncc1C(F)(F)F [compound 77, PND-1186 (VS-4718)], which EC50 is on record?
Answer: 611 nM

Question: How did the EC50 turn out when O=C1Nc2cc(Br)ccc2/C1=C1/Nc2ccccc2/C1=N\O [compound 79, GSK-3-inhibitor-IX] was run?
Answer: 559 nM

Question: How did the EC50 turn out when CCOc1cc(N2CCC(O)CC2)ccc1Nc1ncc2c(n1)N(C1CCCC1)CCC(=O)N2C [compound 80, Mps1-IN-1] was run?
Answer: 452 nM

Question: For Cc1cc(N2CCOCC2)ccc1Nc1nc(NC2CCCCC2)c2nc[nH]c2n1 [compound 81, MPI-0479605], which EC50 is on record?
Answer: 688 nM

Question: With Cc1ccc(NC(=O)c2ccc(CN3CCN(C)CC3)cc2)cc1Nc1nc(-c2cccnc2)cs1 [compound 82, Masitinib (AB1010)] as the compound, how does the EC50 read?
Answer: 916 nM

Question: Cc1ccccc1C(=O)c1ccc(Nc2ccc(Br)cc2N)cc1Cl [compound 83, EO-1428] was tested. Which EC50 did it give?
Answer: 1040 nM

Question: How did the EC50 turn out when NC(=O)c1nc(Nc2ccccc2)sc1NC(=O)C1CCCCC1 [compound 85, UNC-3230] was run?
Answer: 1240 nM

Question: Which EC50 does the source give for CC1(C)CNc2cc(NC(=O)c3cccnc3NCc3ccncc3)ccc21 [compound 86, Motesanib] here?
Answer: 1460 nM

Question: For Cc1ccc(F)c(NC(=O)Nc2ccc(-c3cccc4[nH]nc(N)c34)cc2)c1 [compound 87, Linifanib], which EC50 is on record?
Answer: 1650 nM

Question: Cc1c(NC(=O)OC[C@@H]2COCCN2)cn2ncnc(Nc3ccc4c(cnn4Cc4cccc(F)c4)c3)c12 [compound 88, BMS-599626] was tested. Which EC50 did it give?
Answer: 2300 nM

Question: Which EC50 does the source give for CC(C)(C)C(=O)/C(=N/c1ccc(Cl)cc1)NNc1ccc(Cl)cc1 [compound 90, TY 52156] here?
Answer: 117 nM

Question: With O=C1c2cccnc2C(=O)C(NCCN2CCOCC2)C1Cl (centres unmarked) [compound 91, NSC 663284] as the compound, how does the EC50 read?
Answer: 268 nM

Question: COc1ccc2nc3cc(Cl)ccc3c(Nc3cc(CN4CCCC4)c(O)c(CN4CCCC4)c3)c2n1 [compound 92, pyronaridine] was tested. Which EC50 did it give?
Answer: 416 nM

Question: COC(=O)c1sccc1S(=O)(=O)Nc1ccc(Nc2ccccc2)cc1OC [compound 93, GSK-0660] was tested. Which EC50 did it give?
Answer: 438 nM

Question: How did the EC50 turn out when OC(CNc1ccccc1)Cn1c2ccc(Br)cc2c2cc(Br)ccc21 (centres unmarked) [compound 94, P7C3] was run?
Answer: 652 nM

Question: How did the EC50 turn out when Cc1cccc(Nc2nc(-c3ccncc3)cs2)c1 [compound 95, STF-62247] was run?
Answer: 739 nM

Question: Which EC50 does the source give for COc1ccc(-c2nc(-c3ccc(-c4cccc(Cl)c4)o3)[nH]c2-c2ccc(OC)cc2)cc1 [compound 96, neurodazine] here?
Answer: 956 nM

Question: For c1ccc2c(Oc3nc(Nc4ccc(N5CCOCC5)cc4)c4ncn(C5CCCCC5)c4n3)cccc2c1 [compound 97, Purmorphamine], which EC50 is on record?
Answer: 1100 nM

Question: Which EC50 does the source give for C[C@@H]1CC(=O)c2c(ccc3c2C(=O)c2cccc(O)c2C3=O)C1 [compound 98, ochromycinone] here?
Answer: 1150 nM

Question: How did the EC50 turn out when O=C1C=Cc2cc(Br)ccc2C1=O [compound 99, bonaphthone] was run?
Answer: 1260 nM

Question: For Cc1[nH]c(/C=C2\C(=O)Nc3cc(-c4ccccc4)ccc32)c(C)c1CCC(=O)O [compound 101, su-16f], which EC50 is on record?
Answer: 1380 nM

Question: How did the EC50 turn out when N#Cc1ccc(-c2csc(NN=C3CCCC3)n2)cc1 [compound 103, remodelin] was run?
Answer: 1560 nM

Question: How did the EC50 turn out when COC(=O)/C=C/c1cccc(N(Cc2ccc(-c3ccc(N(C)C)cc3)cc2)C(=O)C2CCCCC2)c1 [compound 104, Fexaramine] was run?
Answer: 1720 nM

Question: Which EC50 does the source give for CC(C)(C)c1cc(C(C)(C)C)c(NC(=O)c2c[nH]c3ccccc3c2=O)cc1O [compound 105, ivacaftor] here?
Answer: 1840 nM

Question: How did the EC50 turn out when Cc1nn(C)c2nc(NNC(=O)Nc3cc(Cl)nc(Cl)c3)cc(C(C)C)c12 [compound 106, JTE-013] was run?
Answer: 2470 nM

Question: Which EC50 does the source give for COc1cc(OC)cc(C(=O)NNC(=O)Nc2cccc3ccccc23)c1 [compound 107, TC-O-9311] here?
Answer: 3550 nM

Question: For Cn1cc(/C=C/C(=O)c2cccc(F)c2)cc1/C=C/C(=O)NO [compound 108, MC1568], which EC50 is on record?
Answer: 3770 nM

Question: With COc1ccc2c3c([nH]c2c1)[C@H](CC(C)C)N1C(=O)[C@H](CCC(=O)OC(C)(C)C)NC(=O)[C@@H]1C3 [compound 109, Ko 143] as the compound, how does the EC50 read?
Answer: 3940 nM

Question: How did the EC50 turn out when CCC[C@H](N[C@H]1CCc2cc(F)cc(F)c2C1)C(=O)Nc1cn(C(C)(C)CNCC(C)(C)C)cn1 [compound 110, Nirogacestat] was run?
Answer: 5560 nM

Same assay, conditions: RAG01 cell line; 72 hours incubation; CellTiter-Glo; percentage effect normalized to vehicle control; 10-point CRC from 10 μM; read-out: EC50

Question: For CCCCCCCCCCC(O)C1C=CC2C(=O)N(c3ccccc3)C(=O)C2N1Nc1ccc([N+](=O)[O-])cc1 (centres unmarked) [compound 89, A12B4C3], which EC50 is on record?
Answer: 2670 nM

Question: How did the EC50 turn out when butylated hydroxyanisole [compound 11] was run?
Answer: 1180 nM

Question: Which EC50 does the source give for licochalcone [compound 21] here?
Answer: 1070 nM

Question: Which EC50 does the source give for piperacetazine [compound 45] here?
Answer: 1580 nM

Each compound was assayed on RAG02 (derived from fibroblasts of the patient's parent) (assay: CellTiter-Glo assay in RAG02 control cell line). Details: 1 μM control, 72 hours.
Type: cell-based, human
Description: (§2) Compounds described herein were tested in three cell lines, RAG01 (derived from fibroblasts of a patient diagnosed with SSMD) fibroblasts, RAG02 (derived from fibroblasts of the patient's parent), and GM09503 (from supplier Corriell) (derived from a healthy donor) to each generate 10-point concentration response curves (CRC). The three cell lines were each thawed seven (7) days prior to seeding. The RAG01 cells were thawed in a medium supplemented with a-tocopherol. Cells were passaged four (4) days prior to the seeding. The α-tocopherol was removed from the RAG01 cells. Cells were then seeded at 900 cells per well in 384-well plates. Two replicates were prepared for two independent (replicate) experiments. All plates were then incubated with compounds described herein for 72 hours, prior to CellTiter-Glo assay. The compounds were tested in 10-point concentration (CRCs) from 10 μM using 3.16×(half Log) dilutions. The assay was run using the CellTiter-Glo (Promega) following manufacturer's guidelines and luminescent spectrophotometric reading on PHERAstar FSX (BMG Labtech). […]
as §1

Question: With CCOC(=O)c1ccc(NC2CCCCC2)c(N)c1 [Ferrostain-1, Ferrostatin-1] as the compound, how does the “effect of control compound on RAG02 cells” value read?
Answer: No effect

The compounds below were run on GM09503 (derived from a healthy donor) (assay: CellTiter-Glo assay in GM09503 control cell line). Details: 1 μM control, 72 hours.
Type: cell-based, human
Description: as §2, §1

Question: With CCOC(=O)c1ccc(NC2CCCCC2)c(N)c1 [Ferrostain-1, Ferrostatin-1] as the compound, how does the “effect of control compound on GM09503 cells” value read?
Answer: No effect
